Key:
CYP1A2 = molecular target: T1, CYP1A2 (Homo sapiens, UniProt P05177); experiment: Inhibition of CYP enzyme activity in human liver microsome, CYP1A2; type: in vitro ADME; details: microsomes
T1 construct: in the assay of CYP enzyme activity in human liver microsome; from tissue; host or cells: human liver microsome
T1 sequence (P05177 1-516): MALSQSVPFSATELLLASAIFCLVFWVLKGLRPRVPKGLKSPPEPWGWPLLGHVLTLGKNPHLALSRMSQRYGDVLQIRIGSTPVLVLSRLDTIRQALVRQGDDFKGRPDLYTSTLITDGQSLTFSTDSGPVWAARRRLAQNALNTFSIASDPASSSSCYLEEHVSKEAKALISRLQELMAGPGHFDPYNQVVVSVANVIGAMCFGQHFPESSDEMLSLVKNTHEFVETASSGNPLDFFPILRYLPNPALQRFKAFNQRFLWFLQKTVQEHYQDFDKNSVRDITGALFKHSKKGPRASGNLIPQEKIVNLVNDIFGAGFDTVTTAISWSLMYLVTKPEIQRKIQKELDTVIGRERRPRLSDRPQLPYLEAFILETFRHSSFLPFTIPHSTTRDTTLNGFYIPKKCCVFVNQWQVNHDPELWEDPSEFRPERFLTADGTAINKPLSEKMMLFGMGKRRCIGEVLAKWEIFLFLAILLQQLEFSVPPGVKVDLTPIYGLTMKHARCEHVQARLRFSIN
Excerpt: The results of the compound disclosed herein and the reference compound Poziotinib in the assay of CYP enzyme activity in human liver microsome were shown in the following table (Table 17).

[1] = system: subcutaneous xenograft tumor of human gastric cancer NCI-N87 cells; experiment: In vivo pharmacodynamics, NCI-N87 subcutaneous xenograft (Assay Example 3); set-up: species or system mouse
Protocol: (§1) Purpose of the assay: in vivo efficacy of the assay compound disclosed herein on subcutaneous xenograft tumor of human gastric cancer NCI-N87 cells in a BALB/c nude mouse model was evaluated.
Animals of the assay: female BALB/c nude mice, 6-8 weeks old, weighted 18-22 grams; supplier: Shanghai Ling Chang Biotechnology Co., Ltd.
(§2) Human gastric cancer NCI-N87 cells were cultured in monolayer in vitro. The culture conditions were RPMI-1640 medium plus 10% fetal bovine serum, 100 U/mL penicillin, 100 U/mL streptomycin and 2 mM glutamine, 37° C., 5% CO2. The passaging was performed by the conventional digestion with trypsin-EDTA twice a week. When the cell saturation was 80%-90%, the cells were collected, counted and inoculated.
0.2 mL (10×10^6) of NCI-N87 cells (PBS+Matrigel, 1:1) were inoculated subcutaneously on the right back of each nude mouse. When the average tumor volume reached 158 mm^3, administration to each group was started.
The assay compounds were formulated into 0.04 mg/mL and 0.08 mg/mL clear solution in the solvents of 10% NMP (N-methylpyrrolidone)+10% ethylene glycol stearate+80% water.
The assay index was to investigate whether tumor growth is inhibited, delayed or cured. Tumor diameter was measured twice a week with a vernier caliper. The calculation formula of tumor volume was: V=0.5a×b^2, wherein a and b represent the long and short diameters of tumor, respectively.
The antitumor efficacy of the compounds was evaluated by TGI (%) or tumor proliferation rate T/C (%). TGI (%) reflects tumor growth inhibition rate. […]
Statistical analysis included mean and standard error of mean (SEM) of tumor volume at each time point in each group (See Table 13 for specific data). […] The comparison between groups was analyzed by T-test, and the comparison among three or more groups was analyzed by one-way ANOVA. […]

[2] = system: subcutaneous xenograft tumor of human gastric cancer NCI-N87 cells; experiment: In vivo pharmacodynamics, NCI-N87 subcutaneous xenograft (Assay Example 4); set-up: species or system mouse; details: 0.5 mg/kg, compared with the vehicle control group
Protocol: as §1
Animals of the assay: female BALB/c nude mice, 6-8 weeks old, weighted 18-22 grams; supplier: shanghai sippr bk laboratory animals Ltd.
as §2, with “μg/mL streptomycin,” for “U/mL streptomycin and 2 mM glutamine,”, “by” for “by the”
0.2 mL (10×10^6) of NCI-N87 cells (PBS+Matrigel, 1:1) were inoculated subcutaneously on the right back of each mouse. […]
The assay index was to investigate whether tumor growth is inhibited, delayed or cured. Tumor diameter was measured twice a week with a vernier caliper. […]
The antitumor efficacy of the compounds was evaluated by TGI (%) or tumor proliferation rate T/C (%). […]
Statistical analysis included the mean and standard error of mean (SEM) of tumor volume at each time point in each group (See Table 14 for specific data). […] The comparison between groups was analyzed by T-test, and the comparison among three or more groups was analyzed by one-way ANOVA. […]

In the case of C=CC(=O)N1[C@@H]2CC[C@H]1C[C@H](Nc1cc3c(Nc4ccc(Cl)c(Cl)c4F)ncnc3cc1OC)C2 [Compound of formula (I)], the “inhibitory activity on CYP1A2 (in words)” value (CYP1A2) is reported as “no inhibitory activity”, the “tumor inhibitory effect (in words)” value ([1]; 0.8 mg/kg, compared with the vehicle control group) is reported as “significant tumor inhibitory effect” and the “drug efficacy compared with Poziotinib (in words)” value ([1]; low-dose group (0.4 mg/kg)) is reported as “comparable to or better than the reference compound Poziotinib”. The “tumor inhibitory effect (in words)” value [2] was “significant tumor inhibitory effect”.
